The target of assay [1] is T1, IDO2 (Homo sapiens, UniProt Q6ZQW0).
T1 construct: made in house
T1 sequence (Q6ZQW0 1-407): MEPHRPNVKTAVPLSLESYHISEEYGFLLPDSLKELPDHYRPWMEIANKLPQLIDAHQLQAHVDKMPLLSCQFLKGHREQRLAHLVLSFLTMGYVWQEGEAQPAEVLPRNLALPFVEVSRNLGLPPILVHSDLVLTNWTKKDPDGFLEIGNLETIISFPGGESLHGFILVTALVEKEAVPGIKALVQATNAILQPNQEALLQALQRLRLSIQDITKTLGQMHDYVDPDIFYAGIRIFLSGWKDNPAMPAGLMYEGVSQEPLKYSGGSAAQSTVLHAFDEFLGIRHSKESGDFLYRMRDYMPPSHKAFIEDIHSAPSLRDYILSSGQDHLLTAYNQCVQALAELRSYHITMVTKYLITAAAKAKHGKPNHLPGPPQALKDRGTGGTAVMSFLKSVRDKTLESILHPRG
Description: Half effective inhibitory concentration IC50 (enzyme level) of IDO2. Format: biochemical. The conditions noted are these: human IDO2, pH 7.5, read-out: IC50 enzymatic IDO2. How it is done: After the mixed solution was in water bath at 37° C. for 5 min, IDO2 was added to mixed solution and reacted at 37° C. for 30 min. After the enzymatic reaction was completed, 200 μL of 30% (w/v) trichloroacetic acid was added to terminate the reaction. Then the reaction mixture was heated in a 65° C. water bath for 15 min to make the reaction product transform from N-formyl-kynurenine to kynurenine, and centrifuged at […] for 10 min. 100 μL of supernatant was draw and mixed with equal volume of 2‰ (w/v) p-dimethylaminobenzaldehyde in acetic acid completely.

The target of assay [2] is T2, hTDO (Homo sapiens, UniProt P48775).
T2 construct: made in house
T2 sequence (P48775 whole entry): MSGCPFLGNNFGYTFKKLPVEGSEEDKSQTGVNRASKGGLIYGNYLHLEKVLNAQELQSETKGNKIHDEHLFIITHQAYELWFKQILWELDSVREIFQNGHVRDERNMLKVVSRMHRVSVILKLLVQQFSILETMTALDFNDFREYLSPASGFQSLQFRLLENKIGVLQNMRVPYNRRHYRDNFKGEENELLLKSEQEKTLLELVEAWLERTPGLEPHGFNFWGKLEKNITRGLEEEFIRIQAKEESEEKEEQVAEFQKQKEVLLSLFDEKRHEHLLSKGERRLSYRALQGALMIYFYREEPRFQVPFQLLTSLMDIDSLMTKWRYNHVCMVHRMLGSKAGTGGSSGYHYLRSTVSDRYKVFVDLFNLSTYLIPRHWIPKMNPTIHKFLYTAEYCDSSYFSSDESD
The assay is described as follows: Half effective inhibitory concentration IC50 (cell) of TDO, transfected HEK293 cells. Format: cell-based. The conditions noted are these: HEK293 cells transfected with pcDNA3.1(+)-hTDO, 5 h; NI means of no inhibitory activity; read-out: IC50 Cellular TDO. How it is done:
The nucleotide sequences of IDO1, IDO2, and TDO have been disclosed. The active IDO1, IDO2, and TDO in the Examples are human IDO1, IDO2, and TDO, and can be prepared by conventional molecular cloning methods. HEK293 cell line was cultured in DMEM high-sugar medium containing 10% fetal bovine serum in a 37° C., 5% CO2 incubator. The cells were blown evenly into 6-well plates, and transfected when the cells grew to 80%-90% fusion. The operation was carried out according to the instructions of Lipofectamine 2000 while improved slightly: the serum-containing medium was draw out and the cells were washed twice with PBS, and 1500 μL of serum-free medium was added to each well. […] The cells were cultured in 37° C., 5% CO2 incubator for 4-6 h, and then the medium was changed into DMEM medium containing 10% serum. […] Test compounds (including compounds of the present invention, […] and INCB023460) at different concentration gradients were added and the total volume of each well was supplemented to 200 μl with cell culture medium. After incubated for 5 h, 140 μL of supernatant was taken into another 96-well plate, 10 μL of 30% (w/v) trichloroacetic acid was added, heated at 65° C. for 15 min, and centrifuged at 13800×g for 5 minutes. 100 μL of supernatant was mixed with equal volume of 2‰ (w/v) […] acetic acid solution, the absorbance was measured at 492 nm by microplate reader after fully mixing. The experimental grouping was pcDNA3.1 (+)-hTDO transfected group (experimental group), pcDNA3.1 (+) transfected group (plasmid-empty control group), and non-transfected group (blank control group). Each group had three repeated well. The inhibitory rate was plotted against the inhibitor concentration, and the IC50 value was calculated by modified Karber method, the experimental results were shown in Table 1.

The target in assay [3] is T2, hTDO. Description: Half effective inhibitory concentration IC50 (enzyme level) of TDO. The assay is classed as biochemical. The conditions noted are these: pH 7.0, NI means of no inhibitory activity, read-out: IC50 enzymatic TDO. How it is done:
The nucleotide sequences of IDO1, IDO2, and TDO have been disclosed. The active IDO1, IDO2, and TDO in the Examples are human IDO1, IDO2, and TDO, and can be prepared by conventional molecular cloning methods.
In a 500 μL of standard detection system, 50 mmol/L potassium phosphate buffer (pH 7.0), 200 μg/mL catalase, 40 mmol/L ascorbic acid, 20 μmol/L methylene blue, substrate L-tryptophan with suitable concentration and hTDO inhibitors to be tested were mixed. After the mixed solution was warmed in water bath at 37° C. for 5 min, hTDO was added to react at 37° C. for 30 min. After the enzymatic reaction was completed, […] (w/v) trichloroacetic acid was added to terminate the reaction. Then the reaction mixture was heated in a 65° C. water bath for 15 min to make the reaction product transform from N-formyl-kynurenine to kynurenine, and centrifuged at […] for 10 min. 100 μL of supernatant was draw and mixed with equal volume of 2‰ (w/v) p-dimethylaminobenzaldehyde in acetic acid completely. The kynurenine can reacted with the solution and turned the mixed solution to yellow, and the absorbance was measured at 492 nm by microplate reader. The inhibitory rate was plotted against the inhibitor concentration, and the IC50 value was calculated by modified Karber method, the experimental results were shown in Table 1.

Assay [4] has as its target T3, IDO1 (Homo sapiens, UniProt P14902). The assay is described as follows: Cellular IC50 of IDO1. The assay is classed as cell-based. An excerpt:
(§1) The nucleotide sequences of IDO1, IDO2, and TDO have been disclosed.
(§2) The IC50 test of IDO1 can be performed with reference to existing methods in the art, such as the method described in Chinese Patent NO.

The target of assay [5] is T1, IDO2. The assay is described as follows: Determination of IDO2 inhibitor type and Ki value. Format: biochemical. The conditions noted are these: [S]/V~[i] map, L-tryptophan 20-40 mM. How it is done:
as §1
After the mixed solution was in water bath at 37° C. for 5 min, 10 μL of IDO2 (about 1 μM) was added to mixed solution and reacted at 37° C. for 30 min. After the enzymatic reaction was completed, 200 μL of 30% (w/v) trichloroacetic acid was added to terminate the reaction. Then the reaction mixture was heated in 65° C. water bath for 15 min to make the reaction product transform from N-formyl-kynurenine to kynurenine, and centrifuged at […] for 10 min. 100 μL of supernatant was draw and mixed with equal volume of 2‰ (w/v) p-dimethylaminobenzaldehyde in acetic acid completely. […] The inhibitor type was determined by Dixon mapping method (1/v˜[i]); the Ki value of inhibitor was obtained by [S]/V˜[i] map.

In assay [6] the target is T1, IDO2. Description: Half effective inhibitory concentration IC50 (cell) of IDO2, transfected U87 MG cells. The assay is classed as cell-based. The settings on record: U87 MG cells transfected with pcDNA3.1(+)-IDO2, 24 h; read-out: IC50 Cellular IDO2. How it is done:
The nucleotide sequences of IDO1, IDO2, and TDO have been disclosed. […] U87 MG cell line (ATCC No.: HTB-14) was cultured in DMEM high-sugar medium containing 10% fetal bovine serum in a 37° C., 5% CO2 incubator. The cells were blown evenly into 6-well plate, and transfected when the cells grew to 80%-90% fusion. […] The cells were cultured in 37° C., 5% CO2 incubator for 6 h, and the medium was changed into DMEM medium containing 10% serum after adherence. […] Test compounds (including compounds of the present invention, […] and D-1-MT) at different concentration gradients were added and the total volume of each well was supplemented to 200 μl with cell culture medium containing L-tryptophan (200 μM of final concentration, sterilized by filtration). After incubated for 24 h, 140 μL of supernatant was taken into another 96-well plate, 10 μL of 30% (w/v) trichloroacetic acid was added, heated at 65° C. for 15 min, and centrifuged at 13800×g for 5 minutes. […] The experimental grouping was pcDNA3.1 (+)-IDO2 transfected group (experimental group), pcDNA3.1 (+) transfected group (empty plasmid control group), and non-transfected group (blank control group). Each group had three repeated well. The inhibitory rate was plotted against the inhibitor concentration, and the IC50 value was calculated by modified Karber method.

The target in assay [7] is T3, IDO1. The assay is described as follows: Ki value of IDO1. The assay is classed as biochemical.
Excerpt: as §1, §2

Assay [8] addresses T3, IDO1. Description: IC50 (enzyme level) of IDO1. The settings on record: read-out: IC50 enzymatic IDO1. The assay is classed as biochemical.
Excerpt: as §1, §2

Where [9] appears, read: cellular, read-out: IC50 Cellular IDO1.

pIC50, pKi: −log10 of the molar value.

T3 sequence (P14902 whole entry): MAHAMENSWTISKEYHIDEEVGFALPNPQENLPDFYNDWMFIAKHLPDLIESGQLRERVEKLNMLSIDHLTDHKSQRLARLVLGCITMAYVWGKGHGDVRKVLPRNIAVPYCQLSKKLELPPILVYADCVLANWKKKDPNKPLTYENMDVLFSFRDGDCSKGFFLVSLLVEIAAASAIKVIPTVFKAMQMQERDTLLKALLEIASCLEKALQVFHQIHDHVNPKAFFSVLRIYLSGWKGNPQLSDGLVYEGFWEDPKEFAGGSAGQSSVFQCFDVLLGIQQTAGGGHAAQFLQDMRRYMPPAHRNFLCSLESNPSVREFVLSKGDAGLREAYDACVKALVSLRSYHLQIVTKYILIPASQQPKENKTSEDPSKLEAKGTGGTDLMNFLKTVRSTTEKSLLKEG

Turning to `CN1CCN(Cc2ccc3nc4n(c(=O)c3c2)-c2ccc(F)cc2C4=O)CC1` [1a], the pIC50 on IDO2 [1] is 4.73; on hTDO [2], 7.03; at hTDO [3] it was 6.12; against IDO1 [4] it was 7.66; on IDO2 [6], 4.73. Besides, the pKi at IDO2 [5] is 5.20.
`O=C1c2cc(F)ccc2-n2c1nc1ccc(CN3CCNCC3)cc1c2=O` [1b]: the pIC50 on IDO2 [1] was 4.50; on hTDO [2], 7.04; at hTDO [3], 6.06; on IDO2 [6] it was 5.45. Besides, the pKi at IDO2 [5] was 5.71.
Take `CC(C)(C)OC(=O)N1CCN(Cc2ccc3nc4n(c(=O)c3c2)-c2ccc(F)cc2C4=O)CC1` [1c]: the pIC50 at IDO2 [1] is 4.20; at hTDO [2], 7.17; on hTDO [3] it was 6.35; against IDO1 [4] it was 6.88; at IDO2 [6] it was 5.09. At IDO2 [5], this compound had a pKi of 5.21.
In the case of `CN1CCN(Cc2ccc3nc4n(c(=O)c3c2)-c2ccccc2C4=O)CC1` [1d], the negative logarithm of the IC50 (pIC50) on IDO2 [1] is 4.33; at hTDO [2], 6.74; at hTDO [3], 5.62; on IDO1 [4] (setting [9]) it was 6.75; at IDO2 [6], 4.63. In addition, the pKi at IDO2 [5] was 5.05.
Turning to `CN(C)Cc1ccc2nc3n(c(=O)c2c1)-c1ccc(F)cc1C3=O` [1e], the pIC50 is 4.85 at IDO2 [1], 7.20 on hTDO [2], 6.39 on hTDO [3] and 5.42 on IDO2 [6]. Moreover, the pKi at IDO2 [5] is 5.36.
As to `O=C1c2cc(F)ccc2-n2c1nc1ccc(CN3CCOCC3)cc1c2=O` [1f], the pIC50 is 4.40 on IDO2 [1], 7.15 on hTDO [2], 6.06 on hTDO [3] and 4.78 on IDO2 [6]. The pKi at IDO2 [5] was 4.76.
`O=C1c2cc(Cn3cc(-c4ccccc4)nn3)ccc2-n2c1nc1ccccc1c2=O` [3a]: the pIC50 is 4.01 at IDO2 [1]; 6.16 at hTDO [2]; 4.33 at hTDO [3]; 6.56 on IDO1 [4] (setting [9]); 4.34 on IDO1 [8]; 4.32 at IDO2 [6]. In addition, the pKi on IDO1 [7] was 3.99.
Consider `O=C1c2cc(Cn3cc(-c4ccccc4)nn3)ccc2-n2c1nc1ccc(F)cc1c2=O` [3b], for which the pIC50 at IDO2 [1] was 4.00; at hTDO [2] it was 5.86; at hTDO [3] it was 4.09; at IDO1 [4] (setting [9]) it was 6.47; at IDO1 [8], 4.30; at IDO2 [6] it was 4.30. Further, the pKi on IDO1 [7] was 4.02.
Consider `O=C1c2cc(F)ccc2-n2c1nc1ccc(Cn3cc(-c4ccccc4)nn3)cc1c2=O` [3c], for which the pIC50 at IDO2 [1] was 4.08; at hTDO [2], 6.71; on hTDO [3], 4.40; on IDO1 [4] (setting [9]), 6.73; on IDO1 [8], 4.41; at IDO2 [6], 4.38. This compound had a pKi on IDO1 [7] of 4.20.
`Cc1ccc2nc3n(c(=O)c2c1)-c1ccc(Cn2cc(-c4ccccc4)nn2)cc1C3=O` [3d, 8-(4-phenyl-1H-1,2,3-triazol-1-methylene) -2-methyltryptanthrin]: the pIC50 was 3.87 at IDO2 [1]; 5.84 on hTDO [2]; 4.05 at hTDO [3]; 6.26 at IDO1 [4] (setting [9]); 4.08 on IDO1 [8]; 4.17 on IDO2 [6]. Also, on IDO1 [7], the pKi was 4.01.
As for `O=C1c2cc(Cn3cc(-c4ccccc4)nn3)ccc2-n2c1nc1ccc(Br)cc1c2=O` [3e, 8-(4-phenyl-1H-1,2,3-triazol-1-methylene) -2-bromotryptanthrin], the pIC50 at IDO2 [1] was 3.99; on hTDO [2] it was 6.15; on hTDO [3], 4.35; at IDO1 [4] (setting [9]) it was 6.70; on IDO1 [8], 4.39; at IDO2 [6], 4.29.
For the compound `O=C1c2cc(Cn3cc(-c4ccccc4)nn3)ccc2-n2c1nc1ccc(Cl)cc1c2=O` [3f, 8-(4-phenyl-1H-1,2,3-triazol-1-methylene) -2-chlorotryptanthrin], the pIC50 at IDO2 [1] was 3.90; on hTDO [2] it was 6.15; on hTDO [3], 4.30; on IDO1 [4] (setting [9]), 6.61; at IDO1 [8], 4.37; on IDO2 [6], 4.19.

A word on the pIC50: it is the IC50 on a negative log10 scale, so that one unit is a factor of ten. Usually pKi stands for the negative decadic logarithm of the Ki, by convention in mol/L.

(Values after patent US11103511B2, “Substituted indolo[2,1-b]quinazolines as inhibitors of tryptophan dioxygenase and indoleamine 2,3-dioxygenase 1” (FUDAN UNIVERSITY, priority 2017, dated 2021).)
